# Experimental data taken from EP4670733A1, “METHODS FOR PREPARING VIRAL PROTEINS AND USES THEREOF” (priority 2024, dated 2025).
# Tests used:
# [1] = system: NA enzyme; experiment: NA enzymatic activity, MUNANA assay; assay type: biochemical, influenza virus; settings: drug substance (Sample E6)
# [2] = system: B/Phuket/3073/2013 virus strain; design: species or system influenza virus
# [3] = system: B/Phuket/3073/2013 virus strain; experiment: Splitting efficiency by ultracentrifugation in sucrose gradient; design: species or system influenza virus
# [4] = Endotoxin content, limulus amoebocyte lysate (LAL) assay; settings: drug substance (Sample E6)
# [5] = system: B/Phuket/3073/2013 virus strain; experiment: HA content by SRID; design: species or system influenza virus
Substance,NA enzymatic activity: NA activity [1],Residual infectious virus [2],Splitting efficiency (ultracentrifugation in sucrose gradient) [3],Endotoxin content [4],HA content in µg/mL (SRID) [5],NA enzymatic activity: Specific activity [1]
Triton X-100,155 µmol/mL/h,No Residual infectious virus,Conform* (Max total protein by OD280 at 40%sucrose for whole virus and lower than 30%sucrose for split virus.),< 0.5 EU/mL,269.97 µg/mL,
C11-15-secondary alcohol ethoxylates,228 µmol/mL/h,No Residual infectious virus,,< 0.5 EU/mL,241.24 µg/mL,1915 µmol/mg/h
